The target in one assay is T1, M1 muscarinic receptor (Homo sapiens, UniProt P11229).
T1 construct: expressed in transfected cells; host or cells: CHO cells (M1-CHO, under zeocin and G418 selection)
T1 sequence (P11229 1-460): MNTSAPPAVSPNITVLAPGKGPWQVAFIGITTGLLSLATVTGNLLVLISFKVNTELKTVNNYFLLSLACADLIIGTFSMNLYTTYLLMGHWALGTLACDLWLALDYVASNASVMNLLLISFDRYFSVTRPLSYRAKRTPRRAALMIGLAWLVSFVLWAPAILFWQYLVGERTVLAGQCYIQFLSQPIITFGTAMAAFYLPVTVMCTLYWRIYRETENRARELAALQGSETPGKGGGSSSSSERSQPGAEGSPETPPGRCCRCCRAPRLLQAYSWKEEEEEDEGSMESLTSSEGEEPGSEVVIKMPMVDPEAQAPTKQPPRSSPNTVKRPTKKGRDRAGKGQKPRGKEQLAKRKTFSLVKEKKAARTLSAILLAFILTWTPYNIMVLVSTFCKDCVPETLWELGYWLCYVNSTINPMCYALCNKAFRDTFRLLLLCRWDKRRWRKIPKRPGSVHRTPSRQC
The assay is described as follows: Functional mobilization of intracellular calcium (FLIPR, Fluo-3), M1-CHO cells. The class given is cell-based. Conditions: for Emax: 100% efficacy is the maximum response obtained with the Carbachol control, read-out: M1 Efficacy. The method, boiled down: (§1)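 Intracellular calcium was tracked by fluorescence (488/540 nm) over 60 sec after compound addition to dye-loaded CHO cells expressing the receptor. Inhibitory activity used a 15 min pre-incubation before carbachol at the subtype EC80.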
Background: Calcium assays in cells follow changes in intracellular calcium, usually with a dye or a luminescent sensor.

Another assay has as its target T2, M4 muscarinic receptor (Homo sapiens, UniProt P08173).
T2 construct: expressed in transfected cells; host or cells: CHO cells (M4-CHO, under puromycin, zeocin and blasticidin selection)
T2 sequence (P08173 1-479): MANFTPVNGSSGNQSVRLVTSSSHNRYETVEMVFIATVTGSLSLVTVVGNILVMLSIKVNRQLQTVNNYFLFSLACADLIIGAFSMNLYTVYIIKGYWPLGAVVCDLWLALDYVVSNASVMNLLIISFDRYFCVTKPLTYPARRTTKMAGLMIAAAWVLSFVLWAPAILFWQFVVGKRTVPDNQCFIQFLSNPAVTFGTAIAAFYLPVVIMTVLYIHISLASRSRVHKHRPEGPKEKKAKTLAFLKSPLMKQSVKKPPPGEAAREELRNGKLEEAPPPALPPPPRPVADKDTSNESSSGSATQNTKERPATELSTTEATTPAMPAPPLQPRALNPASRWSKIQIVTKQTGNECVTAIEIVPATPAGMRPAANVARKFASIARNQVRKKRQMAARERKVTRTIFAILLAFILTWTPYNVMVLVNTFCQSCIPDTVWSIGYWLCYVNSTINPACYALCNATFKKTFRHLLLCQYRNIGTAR
Description: Functional mobilization of intracellular calcium (FLIPR, Fluo-3), M4-CHO cells. Format: cell-based. As to conditions: for Emax: 100% efficacy is the maximum response obtained with the Carbachol control, read-out: M4 Efficacy. The method, boiled down:
as §1

The mark [1] stands for this setting: compound nos. 1-454, M1-CHO cells, calcium mobilization.
The mark [2] stands for this setting: compound nos. 1-454, M4-CHO cells, calcium mobilization.

Where two headings read alike, the source gives them in different places.

For `CCOC(=O)N1CCC(N2CCC3(CC2)CN(C(=O)CC(C)(C)C)c2ccc(F)cc23)CC1` [compound 194], the Emax at M1 muscarinic receptor (compound nos. 1-454) was > 85%; at M4 muscarinic receptor (compound nos. 1-454), 55 to 70%. The “M1 Activity” value at M1 muscarinic receptor (setting [1]) was “+++ (activity was measured to be less than or equal to 0.7 μM)”. In addition, the “M4 Activity” value on M4 muscarinic receptor (setting [2]) is given as “+ (activity was measured to be greater than or equal to 4.0 μM)”.
`Clc1ccc2c(c1)C1(CCN(C3CCOCC3)CC1)CN2` [compound 37]: the Emax is 65 to 85% at M1 muscarinic receptor (compound nos. 1-454) and > 70% on M4 muscarinic receptor (compound nos. 1-454). The “M1 Activity” value at M1 muscarinic receptor (setting [1]) was “+++ (activity was measured to be less than or equal to 0.7 μM)”. Further, the “M4 Activity” value at M4 muscarinic receptor (setting [2]) is “++ (activity was measured to be between 0.1 μM and 4.0 μM)”.
With `CC(=O)N1CC2(CCN(C3CCN(c4cncc(C5CC5)n4)CC3)CC2)c2ccccc21` [compound 503], the Emax at M1 muscarinic receptor (compound nos. 455-509) and on M4 muscarinic receptor (compound nos. 455-509) was < 25% each time. The “M1 Activity” value on M1 muscarinic receptor (compounds 455-509) is reported as “+++ (activity was measured to be less than or equal to 2.0 μM)”. Moreover, the “M4 Activity” value at M4 muscarinic receptor (compounds 455-509) was “++ (activity was measured to be between 2.0 μM and 5.0 μM)”.
For the molecule `CCCOC(=O)N1C2CCC1CC(N1CCC3(CC1)CN(C(=O)C1CCC1)c1ccc(F)cc13)C2` (centres unmarked) [compound 302], the Emax is < 65% on M1 muscarinic receptor (compound nos. 1-454) and < 55% at M4 muscarinic receptor (compound nos. 1-454). For the same molecule, the “M1 Activity” value on M1 muscarinic receptor (setting [1]) is on record as “+ (activity was measured to be greater than or equal to 3.0 μM)”. Also, at M4 muscarinic receptor (setting [2]), the “M4 Activity” value is given as “+ (activity was measured to be greater than or equal to 4.0 μM)”.
As for `CCOC(=O)N1C2CCC1CC(N1CCC3(CC1)CNc1ccc(F)cc13)C2` (centres unmarked) [compound 310], the Emax at M1 muscarinic receptor (compound nos. 1-454) was < 65%; at M4 muscarinic receptor (compound nos. 1-454) it was < 55%. The “M1 Activity” value at M1 muscarinic receptor (setting [1]) was “++ (activity was measured to be between 0.7 μM and 3.0 μM)”. For the same molecule, at M4 muscarinic receptor (setting [2]), the “M4 Activity” value is “+ (activity was measured to be greater than or equal to 4.0 μM)”.
Consider `CN(C)C(=O)N1CC2(CCN(C3CCN(c4cccnc4)CC3)CC2)c2cc(F)ccc21` [compound 453], for which, at M1 muscarinic receptor (compound nos. 1-454), the “M1 Activity” value was “+++ (activity was measured to be less than or equal to 0.7 μM)” and the Emax is 65 to 85%. At M4 muscarinic receptor (compound nos. 1-454), the “M4 Activity” value is “+++ (activity was measured to be less than or equal to 0.1 μM)” and the Emax lay within 55 to 70%.
As for `CCOC(=O)N1C2CCC1CC(N1CCC3(CC1)CN(C(C)=O)c1ccccc13)C2` (centres unmarked) [compound 205], the Emax on M1 muscarinic receptor (compound nos. 1-454) is < 65%; at M4 muscarinic receptor (compound nos. 1-454) it was < 55%. The “M1 Activity” value on M1 muscarinic receptor (setting [1]) is “+ (activity was measured to be greater than or equal to 3.0 μM)”. Moreover, the “M4 Activity” value on M4 muscarinic receptor (setting [2]) is recorded as “+ (activity was measured to be greater than or equal to 4.0 μM)”.
On to `CN(C)C(=O)N1CC2(CCN(CC3CCN(c4nccs4)C3)CC2)c2cc(F)ccc21` (centres unmarked) [compound 450], for which, at M1 muscarinic receptor (compound nos. 1-454), the “M1 Activity” value is “++ (activity was measured to be between 0.7 μM and 3.0 μM)”; the Emax was in the range of 65 to 85%. At M4 muscarinic receptor (compound nos. 1-454), the “M4 Activity” value is recorded as “+++ (activity was measured to be less than or equal to 0.1 μM)” and the Emax lay in the range of 55 to 70%.
As for `CC(=O)N1CC2(CCN(C3CCN(c4nc(C)ns4)CC3)CC2)c2ccccc21` [compound 482], the Emax on M1 muscarinic receptor (compound nos. 455-509) was > 100%; on M4 muscarinic receptor (compound nos. 455-509), 25 to 100%. For the same molecule, the “M1 Activity” value on M1 muscarinic receptor (compounds 455-509) is reported as “+++ (activity was measured to be less than or equal to 2.0 μM)”. The “M4 Activity” value at M4 muscarinic receptor (compounds 455-509) was “++ (activity was measured to be between 2.0 μM and 5.0 μM)”.
Turning to `CC(=O)N1CC2(CCN(C3CCN(C(=O)OC4CCC4)CC3)CC2)c2cc(F)ccc21` [compound 140], the Emax on M1 muscarinic receptor (compound nos. 1-454) was > 85%; on M4 muscarinic receptor (compound nos. 1-454), > 70%. For the same molecule, at M1 muscarinic receptor (setting [1]), the “M1 Activity” value is “+++ (activity was measured to be less than or equal to 0.7 μM)”. Moreover, the “M4 Activity” value on M4 muscarinic receptor (setting [2]) is given as “+++ (activity was measured to be less than or equal to 0.1 μM)”.
Take `CC(=O)N1CC2(CCN(C3CCN(C(=O)OCCF)C3)CC2)c2cc(F)ccc21` (centres unmarked) [compound 394]: on M1 muscarinic receptor (compound nos. 1-454), the “M1 Activity” value is “+++ (activity was measured to be less than or equal to 0.7 μM)” and the Emax is < 65%. On M4 muscarinic receptor (compound nos. 1-454), the “M4 Activity” value was “++ (activity was measured to be between 0.1 μM and 4.0 μM)”; the Emax is < 55%.
`CCOC(=O)N1CCC(CN2CCC3(CC2)COc2ccc(F)cc23)CC1` [compound 107]: the Emax at M1 muscarinic receptor (compound nos. 1-454) is 65 to 85%; on M4 muscarinic receptor (compound nos. 1-454) it was < 55%. The “M1 Activity” value at M1 muscarinic receptor (setting [1]) is reported as “+++ (activity was measured to be less than or equal to 0.7 μM)”. The “M4 Activity” value at M4 muscarinic receptor (setting [2]) is “+ (activity was measured to be greater than or equal to 4.0 μM)”.
For `CCOC(=O)N1CCC(CN2CCC3(CCc4ccccc43)CC2)CC1` [compound 414], at M1 muscarinic receptor (compound nos. 1-454), the “M1 Activity” value is recorded as “+ (activity was measured to be greater than or equal to 3.0 μM)” and the Emax is < 65%. At M4 muscarinic receptor (compound nos. 1-454), the “M4 Activity” value is on record as “+ (activity was measured to be greater than or equal to 4.0 μM)” and the Emax is < 55%.
For the molecule `CCOC(=O)N1CCC(N2CCC3(CC2)CN(C(=O)CC)c2ccc(F)cc23)CC1` [compound 317], the Emax at M1 muscarinic receptor (compound nos. 1-454) is < 65%; at M4 muscarinic receptor (compound nos. 1-454) it was < 55%. Besides, on M1 muscarinic receptor (setting [1]), the “M1 Activity” value is on record as “+ (activity was measured to be greater than or equal to 3.0 μM)”. Further, at M4 muscarinic receptor (setting [2]), the “M4 Activity” value is “+ (activity was measured to be greater than or equal to 4.0 μM)”.
`CCOC(=O)N1C2CCC1CC(N1CCC3(CC1)CN(C(=O)C(C)C)c1ccc(F)cc13)C2` (centres unmarked) [compound 390]: on M1 muscarinic receptor (compound nos. 1-454), the “M1 Activity” value was “+++ (activity was measured to be less than or equal to 0.7 μM)” and the Emax was 65 to 85%. Besides, at M4 muscarinic receptor (compound nos. 1-454), the “M4 Activity” value is “+ (activity was measured to be greater than or equal to 4.0 μM)” and the Emax was < 55%.
`Fc1ccc2c(c1)C1(CCN(C3CC4CCC(C4)C3)CC1)CN2` (centres unmarked) [compound 377]: on M1 muscarinic receptor (compound nos. 1-454), the “M1 Activity” value is given as “+++ (activity was measured to be less than or equal to 0.7 μM)” and the Emax lay in the range of 65 to 85%. Also, on M4 muscarinic receptor (compound nos. 1-454), the “M4 Activity” value was “++ (activity was measured to be between 0.1 μM and 4.0 μM)”; the Emax is 55 to 70%.
As to `CCOC(=O)N1CCC(N2CCC3(CC2)CN(C(=O)C2CC2)c2ccc(F)cc23)CC1` [compound 136], the Emax at M1 muscarinic receptor (compound nos. 1-454) was > 85%; at M4 muscarinic receptor (compound nos. 1-454), > 70%. For the same molecule, at M1 muscarinic receptor (setting [1]), the “M1 Activity” value is listed as “+++ (activity was measured to be less than or equal to 0.7 μM)”. Besides, on M4 muscarinic receptor (setting [2]), the “M4 Activity” value is recorded as “+++ (activity was measured to be less than or equal to 0.1 μM)”.
As to `CC(=O)N1CC2(CCN(C3CCCCC3)CC2)c2cc(F)ccc21` [compound 387], at M1 muscarinic receptor (compound nos. 1-454), the “M1 Activity” value is listed as “+++ (activity was measured to be less than or equal to 0.7 μM)” and the Emax fell in the range of 65 to 85%. For the same molecule, at M4 muscarinic receptor (compound nos. 1-454), the “M4 Activity” value was “++ (activity was measured to be between 0.1 μM and 4.0 μM)”; the Emax is < 55%.
Consider `C#CCOC(=O)N1CCC(CN2CCC3(CC2)CN(C(C)=O)c2ccc(F)cc23)CC1` [compound 316], for which the Emax at M1 muscarinic receptor (compound nos. 1-454) was < 65%; on M4 muscarinic receptor (compound nos. 1-454) it was < 55%. In addition, the “M1 Activity” value on M1 muscarinic receptor (setting [1]) is listed as “+ (activity was measured to be greater than or equal to 3.0 μM)”. Besides, the “M4 Activity” value on M4 muscarinic receptor (setting [2]) is “+ (activity was measured to be greater than or equal to 4.0 μM)”.
Take `CCOC(=O)N1CCC(N2CCC3(CC2)CN(C(=O)N(CC)CC)c2ccc(F)cc23)CC1` [compound 223]: the Emax at M1 muscarinic receptor (compound nos. 1-454) was < 65%; on M4 muscarinic receptor (compound nos. 1-454), < 55%. Moreover, on M1 muscarinic receptor (setting [1]), the “M1 Activity” value was “+ (activity was measured to be greater than or equal to 3.0 μM)”. Further, at M4 muscarinic receptor (setting [2]), the “M4 Activity” value was “+ (activity was measured to be greater than or equal to 4.0 μM)”.

The values are drawn from patent publication US7858635B2 (priority 2005, dated 2010).
